Earlier results in US20060210485A1, “Pharmaceutical formulations” (priority 2003, published 2006).
Counter-ions that a name gives are not always drawn.

Conditions: solid tablets with a lactose excipient; adducts postulated via the Maillard reaction

SMILES: CNCCC(Oc1ccc(C(F)(F)F)cc1)c1ccccc1 (stereo not shown) [fluoxetine hydrochloride]
- chemical stability in presence of lactose: undergoes degradation
